Laboratory results: ChEMBL document CHEMBL3091307, “Structure-anti-MRSA activity relationship of macrocyclic bis(bibenzyl) derivatives” (2013)
≈ marks a conversion by molar mass, not a printed value. Calls of active or inactive are those of the source. The rule behind the calls is not given here.

Assays:
Staphylococcus aureus [1] = test: Antibacterial activity against methicillin-resistant Staphylococcus aureus clinical isolate OM584 by liquid microdilution method; type: functional
Staphylococcus aureus [2] = test: Antibacterial activity against methicillin-resistant Staphylococcus aureus clinical isolate OM481 by liquid microdilution method; type: functional
Staphylococcus aureus [3] = test: Antibacterial activity against 2-phenoxyphenol and trichlosan-resistant Staphylococcus aureus clinical isolate N315 by liquid microdilution method; type: functional
Staphylococcus aureus [4] = test: Antibacterial activity against methicillin-resistant Staphylococcus aureus clinical isolate N315 by liquid microdilution method; type: functional
Staphylococcus aureus [5] = test: Antibacterial activity against methicillin-resistant Staphylococcus aureus at 4 times MIC by cell survival assay; type: functional, organism-based
Staphylococcus aureus [6] = test: Bactericidal activity against methicillin-resistant Staphylococcus aureus at 4 times MIC by cell survival assay; type: functional, organism-based
Staphylococcus aureus [7] = test: Bacteriostatic activity against methicillin-resistant Staphylococcus aureus at 4 times MIC by cell survival assay; type: functional, organism-based

Work on `Oc1ccc2c(c1)CCc1ccc(cc1)Oc1cccc(c1)CCc1ccc-2c(O)c1` yielded an MIC (Staphylococcus aureus [1]) of 1 µg/mL (≈ 2.45 µM), an MIC (Staphylococcus aureus [2]) of 1 µg/mL (≈ 2.45 µM) and an MIC (Staphylococcus aureus [3]) of 1 µg/mL (≈ 2.45 µM). It also gave an MIC (Staphylococcus aureus [4]) of 1 µg/mL (≈ 2.45 µM).

`Oc1ccc2cc1Oc1ccc(cc1)CCc1ccc(O)c(c1)Oc1ccc(cc1)CC2` was tested, and the MIC (Staphylococcus aureus [1]) was greater than 100 µg/mL, the MIC (Staphylococcus aureus [2]) was greater than 100 µg/mL and the MIC (Staphylococcus aureus [4]) was greater than 100 µg/mL.

Molecule `Oc1ccc2cc1Oc1ccc(cc1)CCc1ccccc1-c1ccc(cc1O)CC2` has an MIC (Staphylococcus aureus [1]) of 1 µg/mL (≈ 2.45 µM), an MIC (Staphylococcus aureus [2]) of 1 µg/mL (≈ 2.45 µM) and an MIC (Staphylococcus aureus [3]) of 1 µg/mL (≈ 2.45 µM). The MIC (Staphylococcus aureus [4]) was 1 µg/mL (≈ 2.45 µM).

`Oc1ccc2c(c1)CCc1ccc(cc1O)Oc1cccc(c1)CCc1ccc-2c(O)c1` gave an MIC (Staphylococcus aureus [1]) of 4 µg/mL (≈ 9.42 µM), an MIC (Staphylococcus aureus [2]) of 4 µg/mL (≈ 9.42 µM) and an MIC (Staphylococcus aureus [4]) of 4 µg/mL (≈ 9.42 µM).

With `Oc1ccc2c(c1)CCc1ccc(c(O)c1)-c1ccc(O)c(c1)CCc1ccc-2c(O)c1` the MIC (Staphylococcus aureus [1]) was 32 µg/mL (≈ 75.4 µM), the MIC (Staphylococcus aureus [2]) was 32 µg/mL (≈ 75.4 µM) and the MIC (Staphylococcus aureus [4]) was 32 µg/mL (≈ 75.4 µM).

`Oc1ccc2c(c1)CCc1ccc(c(O)c1)Oc1cc(ccc1O)CCc1ccc-2c(O)c1` gave an MIC (Staphylococcus aureus [1]) of 16 µg/mL (≈ 36.3 µM), an MIC (Staphylococcus aureus [2]) of 16 µg/mL (≈ 36.3 µM) and an MIC (Staphylococcus aureus [4]) of 8 µg/mL (≈ 18.2 µM).

`Oc1ccc2c(c1)CCc1ccc(cc1O)Oc1cc(ccc1O)CCc1ccc-2c(O)c1` showed an MIC (Staphylococcus aureus [1]) of 8 µg/mL (≈ 18.2 µM), an MIC (Staphylococcus aureus [2]) of 8 µg/mL (≈ 18.2 µM) and an MIC (Staphylococcus aureus [4]) of 8 µg/mL (≈ 18.2 µM).

`Oc1ccc2c(c1)CCc1ccc(cc1)Oc1cc(ccc1O)CCc1ccc-2c(O)c1` [RICCARDI C] was tested, and the MIC (Staphylococcus aureus [1]) was 2 µg/mL (≈ 4.71 µM), the MIC (Staphylococcus aureus [2]) was 2 µg/mL (≈ 4.71 µM) and the Activity (Staphylococcus aureus [5]) was “Active”. For the same molecule, the MIC (Staphylococcus aureus [3]) was 2 µg/mL (≈ 4.71 µM) and the MIC (Staphylococcus aureus [4]) was 2 µg/mL (≈ 4.71 µM).

Work on `Oc1ccc2c(c1)CCc1ccc(cc1)Oc1cc(ccc1F)CCc1ccc-2c(O)c1` yielded an MIC (Staphylococcus aureus [1]) of 2 µg/mL (≈ 4.69 µM), an MIC (Staphylococcus aureus [2]) of 1 µg/mL (≈ 2.34 µM) and an MIC (Staphylococcus aureus [4]) of 1 µg/mL (≈ 2.34 µM).

Molecule `Oc1ccc2c(c1)CCc1ccc(c(F)c1)Oc1cc(ccc1O)CCc1ccc-2c(O)c1` has an MIC (Staphylococcus aureus [1]) of 8 µg/mL (≈ 18.1 µM), an MIC (Staphylococcus aureus [2]) of 8 µg/mL (≈ 18.1 µM) and an MIC (Staphylococcus aureus [4]) of 4 µg/mL (≈ 9.04 µM).

For `CC(=O)NC[C@H]1CN(c2ccc(N3CCOCC3)c(F)c2)C(=O)O1` [LINEZOLID], the MIC (Staphylococcus aureus [1]) was 1 µg/mL (≈ 2.96 µM) and the MIC (Staphylococcus aureus [2]) was 1 µg/mL (≈ 2.96 µM).

`Oc1ccc2c(c1)CCc1ccc(O)c(c1)Oc1ccc(cc1)CCc1ccc-2c(O)c1` gave an MIC (Staphylococcus aureus [1]) of 4 µg/mL (≈ 9.42 µM), an MIC (Staphylococcus aureus [2]) of 4 µg/mL (≈ 9.42 µM) and an MIC (Staphylococcus aureus [4]) of 4 µg/mL (≈ 9.42 µM).

`Oc1ccccc1Oc1ccccc1` was tested, and the MIC (Staphylococcus aureus [1]) was 8 µg/mL (≈ 43 µM), the Activity (Staphylococcus aureus [6]) was “inactive” and the Activity (Staphylococcus aureus [7]) was “Active”. It also gave an MIC (Staphylococcus aureus [2]) of 8 µg/mL (≈ 43 µM) and an MIC (Staphylococcus aureus [4]) of 8 µg/mL (≈ 43 µM).
